This note sets out measurements from ChEMBL document CHEMBL1132061, “Studies towards the identification of potent, selective and bioavailable thrombin inhibitors” (Bioorg Med Chem Lett, 1999).

The target in one data set is Prothrombin (Homo sapiens, UniProt P00734). Nature of the data set: In vitro inhibition of human thrombin.
The species named for the next data set is Homo sapiens. Description: Influence on the doubling of activated partial human thromboplastin time(APTT). It is filed as functional.
A short description of data set [1]: Bioavailability in rat after p.o. administration at a dose of 30 mg/kg. It is filed as ADME, organism-based. Particulars: in vivo, po.

With `CN(C)C[C@H](Cc1ccccc1)Nc1ccncc1S(=O)(=O)N[C@@H](Cc1ccccc1)C(=O)N1CCC(CCF)CC1` (stereo in doubt; 8), at Prothrombin, the affinity, expressed as Ki, was 130 nM. This lies in the sub-micromolar range.
In the data set listed under Homo sapiens, `Nc1ccc(C[C@H](NS(=O)(=O)c2cnccc2N[C@@H](Cc2ccccc2)CN2CCOCC2)C(=O)N2CCC(CCF)CC2)cc1` had an Activity of 2.9 µM.
For `CCC1CCN(C(=O)[C@H](Cc2ccc(N)cc2)NS(=O)(=O)c2cnccc2N[C@H](COCCO)Cc2ccccc2)CC1` (stereo in doubt; 62) [listing 1 of 2 here], the bioavailability (usually dose-corrected exposure relative to a reference, in per cent) in data set [1] amounted to 55%. Besides, on Prothrombin, affinity was put at a Ki of 147 nM.
For the molecule `O=C([C@H](Cc1ccc(O)cc1)NS(=O)(=O)c1cnccc1N[C@H](COCCO)Cc1ccccc1)N1CCC(CCCl)CC1`, at Prothrombin, the affinity, expressed as Ki, was 28 nM. The molecule also had an Activity in the data set listed under Homo sapiens of 4.4 µM.
Turning to `COc1ccc(C[C@@H](CO)Nc2ccncc2S(=O)(=O)N[C@@H](Cc2ccccc2)C(=O)N2CCC(CCF)CC2)cc1`, the Ki – broadly, the equilibrium dissociation constant of an inhibitor or competing ligand from its target – at Prothrombin was 85 nM.
The molecule `CCC1CCN(C(=O)[C@H](Cc2ccc(N)cc2)NS(=O)(=O)c2cnccc2N[C@H](CO)Cc2ccc(OC)cc2)CC1` gave a Ki on Prothrombin of 40 nM. Against the preceding molecule, the Ki is about 2.1-fold lower.
Molecule `CCC1CCN(C(=O)[C@H](Cc2ccc(N)cc2)NS(=O)(=O)c2cnccc2N[C@H](COCCO)Cc2ccccc2)CC1` (stereo in doubt; 62) [listing 2 of 2 here] yielded an Activity in the data set listed under Homo sapiens of 5 µM.
For `O=C([C@H](Cc1ccccc1)NS(=O)(=O)c1cnccc1N[C@H](COCCO)Cc1ccccc1)N1CCC(CCF)CC1`, at Prothrombin, the Ki stood at 220 nM.
On to `CN(C)C[C@H](Cc1ccccc1)Nc1ccncc1S(=O)(=O)N[C@@H](Cc1ccccc1)C(=O)N1CCC(CCF)CC1` (stereo in doubt; 64) [listing 1 of 2 here], for which, in the data set listed under Homo sapiens, the Activity came to 9.6 µM.
As to `CCC1CCN(C(=O)[C@H](Cc2ccc(N)cc2)NS(=O)(=O)c2cnccc2N[C@H](COCCO)Cc2ccccc2)CC1` (stereo in doubt; 16), the affinity on Prothrombin, expressed as Ki, was 147 nM.
For the molecule `O=C([C@H](Cc1ccccc1)NS(=O)(=O)c1cnccc1N[C@@H](Cc1ccccc1)CN1CCC(O)CC1)N1CCC(CCF)CC1`, the Ki on Prothrombin was 61 nM.
As for `CCC1CCN(C(=O)[C@H](Cc2ccc(N)cc2)NS(=O)(=O)c2cnccc2N[C@@H](Cc2ccccc2)CN2CCOCC2)CC1`, the Ki at Prothrombin was 62 nM.
The same measure, in the same setting: the value for `CN(C)C[C@H](Cc1ccccc1)Nc1ccncc1S(=O)(=O)N[C@@H](Cc1ccccc1)C(=O)N1CCC(CCF)CC1` (stereo in doubt; 64) [listing 2 of 2 here] was 130 nM.
